Source: patent US7507727B2, “Substituted quinobenzoxazine analogs and methods of using thereof” (Cylene Pharmaceuticals, Inc., priority 2003, dated 2009)
“Also recorded” adds a separate entry of the source.

Assays:
topoisomerase I = topoisomerase I (Homo sapiens, UniProt P11387); test: Topoisomerase I inhibition; format: biochemical
[1] = Pharmacokinetic/toxicokinetic evaluation in dogs; format: in vivo, beagle dogs; conditions: for Accumulation Ratio: Dose 5 to Dose 1 AUC(0-24), 1.2 mg/kg IV; for Tmax / AUC(0-t) / Cmax / half-life: iv, 1.2 mg/kg; for Tmax: median
Method: The study was conducted using three (3) test article and one (1) control article group. The control article was the solution (5% dextrose in water) used to dilute the test article prior to administration and was administered at the same volume as the high dose. The test article dosage levels for this study were approximately 12, 3.8, and 1.2 mg/kg. Test and control articles were administered once by intravenous (IV) infusion over approximately a one hour period on five consecutive days. Blood samples for test article blood level analysis was taken as follows (i.e., pk/tk sampling): approximately 1 mL of blood was taken from three male and three female dogs in the low dose group at approximately 20 minutes and 40 minutes from the start of the infusion, and then at the end of infusion (Time 0) and at 5, 10, 15, and 30 minutes, and 1, 2, 4, 8, 12, and 24 hours from the end of the infusion after the first and fifth doses. Also, prior to and immediately after Dose 1 and after Dose 5 for all animals, and for recovery animals prior to necropsy, approximately 5-10 second ECG tracings in a lead II configuration were obtained. Animals were terminated one (1) or 15 days after the last dose. Blood for hematology and clinical chemistry analysis was drawn pre-dose and prior to euthanasia at termination. Following euthanasia, a necropsy was performed to include collection of major organs for microscopic evaluation.
PK/TK: Blood samples for test article blood level analysis were taken. Approximately 1 mL of blood was taken from three males and three females in the low dose group at approximately 20 minutes and 40 minutes from the start of the infusion, and then at the end of infusion (Time 0) and at 5, 10, 15, and 30 minutes, and 1, 2, 4, 8, 12, and 24 hours from the end of the infusion after the first and fifth dose. Plasma (lithium heparin anticoagulant) samples were prepared and analyzed.

MiaPaCa xenograft = test: MiaPaCa pancreatic cancer xenograft model; format: in vivo, mice; conditions: 5, 10 and 15 mg/kg i.p. q.o.d., FIG. 10
Method: CX-3543 was tested against a number of cancer xenograft models to determine the in vivo efficacy. HCT-116 and PC-3 tumor-bearing nu/nu or MiaPaCa tumor-bearing SCID mice were administered reference and testing compounds on schedules indicated in figure legends. Tumor measurements were taken with calipers every other day or twice a week starting from the first day of dosing and body weights were measured at the same time points. Tumor volumes were calculated from the standard formula, W^2×L/2. c-MYC mRNA expression was measured with QPCR from all tumor samples following the final dose. 18S ribosomal RNA was used as a housekeeper and also quantified with QPCR.

[2] = Pharmacokinetic/toxicokinetic evaluation in rats; format: in vivo; conditions: for Cmax / AUC(0-t) / half-life / AUC(0-inf): rat, plasma
Method: The study was conducted using three (3) test and one (1) control article groups. The high and low test article groups and the control group consisted of 28 animals each and were used to assess tolerance. The medium test article group consisted of 64 animals of which 28 animals were used to assess tolerance and 36 animals were used to determine the level of test article in the blood at various time points after the first and fifth doses in the PK/TK portion of the study. The control article was the solution (5% dextrose in water; D5W) used to dilute the test article prior to administration and was administered at the same volume as the high dose test article group. […] Test and control articles were administered by intravenous (IV) injection into a tail vein over one minute on five consecutive days.
Blood samples for test article blood level analysis were taken as follows. Approximately 0.3-0.5 mL of blood was taken from three male and three female rats under anesthesia at each sample time point of pre-dose and at the end of injection (Time 0) and at approximately 0.08, 0.25, 0.5, 1, 2, 4, 8, 12, and 24 hours from the end of the injection after the first and fifth doses. Animals used to assess tolerance were terminated one day (for the primary group) or 15 days (for the recovery group) after the last dose. At termination of the tolerance test animals, blood for hematology and clinical chemistry analysis was drawn prior to euthanasia and following euthanasia. A necropsy was performed to include collection of major organs for microscopic evaluation. The animals used for the pk/tk blood sampling only to determine the level of test article were euthanized after the final blood sample was collected without any further sampling or observations.
PK/TK: Blood samples for test article blood level analysis were taken. Utilizing 18 male and 18 female medium dose animals, approximately 0.3-0.5 mL of blood was taken from three male and three female rats under anesthesia at each sampling time point of pre-dose and at the end of injection (Time 0) and at approximately 0.08, 0.25, 0.5, 1, 2, 4, 8, 12, and 24 hours from the end of the injection after the first and fifth dose. Blood sampling was via retro-orbital bleeding or cardiac puncture bleeding for an animal's terminal sample. Plasma (lithium heparin anticoagulant) samples were prepared and analyzed. General procedures for chemical pathology, necropsy, and histopathology, and statistical methods, for example as described in Example 65, were followed.

Chain of topoisomerase I (P11387 whole entry): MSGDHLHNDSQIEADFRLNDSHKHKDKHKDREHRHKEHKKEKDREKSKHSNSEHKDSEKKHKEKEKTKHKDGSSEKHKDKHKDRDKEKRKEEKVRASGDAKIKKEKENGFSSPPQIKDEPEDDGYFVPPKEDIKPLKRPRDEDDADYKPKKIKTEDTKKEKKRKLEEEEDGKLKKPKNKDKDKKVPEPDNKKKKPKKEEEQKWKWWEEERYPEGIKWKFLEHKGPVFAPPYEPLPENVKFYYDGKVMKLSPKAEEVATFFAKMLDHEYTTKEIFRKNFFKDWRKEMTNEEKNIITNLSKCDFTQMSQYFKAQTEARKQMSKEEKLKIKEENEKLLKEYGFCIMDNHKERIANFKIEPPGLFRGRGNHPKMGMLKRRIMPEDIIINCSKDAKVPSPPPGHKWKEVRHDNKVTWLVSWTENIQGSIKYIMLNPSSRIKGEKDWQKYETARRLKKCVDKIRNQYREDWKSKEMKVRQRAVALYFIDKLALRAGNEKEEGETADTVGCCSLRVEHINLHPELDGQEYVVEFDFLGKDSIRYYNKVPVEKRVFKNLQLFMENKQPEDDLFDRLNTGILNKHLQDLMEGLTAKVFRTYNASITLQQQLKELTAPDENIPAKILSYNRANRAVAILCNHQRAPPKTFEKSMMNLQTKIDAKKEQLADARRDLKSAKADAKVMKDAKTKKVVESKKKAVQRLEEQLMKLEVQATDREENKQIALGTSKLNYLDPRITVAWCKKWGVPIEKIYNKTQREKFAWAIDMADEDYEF

## CN1CCCC1CCNC(=O)c1cn2c3c(c(N4CCC(c5cnccn5)C4)c(F)cc3c1=O)Oc1cc3ccccc3cc1-2 (centres unmarked) [CX-3543]
Topoisomerase I
  inhibitory activity against topoisomerase I: not to be an inhibitor or poison
[1]; beagle, dog, plasma, female, 1.2 mg/kg IV infusion, Dose 1, read-out: Mean AUC(0-inf)
  AUC(0-inf): 386 ng·h/mL
[1]; beagle, dog, plasma, male, 1.2 mg/kg IV infusion, Dose 1, read-out: Mean AUC(0-inf)
  AUC(0-inf): 317 ng·h/mL
[1]; female
  Dose 5 to Dose 1 ratio for AUC(0-24): 1.1
  Accumulation Ratio: 1.1
[1]; female, Dose 1, 1.2 mg/kg IV, mean
  AUC(0-inf): 386.3 ng·h/mL
[1]; female, beagle, dog, plasma, Dose 1, 1.2 mg/kg IV
  Tmax: 0.67 h
[1]; female, beagle, dog, plasma, Dose 5, 1.2 mg/kg IV
  Tmax: 1 h
[1]; female, beagle, dog, plasma, female, 1.2 mg/kg IV infusion, Dose 1, read-out: Mean AUC(0-24)
  AUC(0-t): 381 ng·h/mL
[1]; female, beagle, dog, plasma, female, 1.2 mg/kg IV infusion, Dose 1, read-out: Mean Cmax
  Cmax: 139 ng/mL
[1]; female, beagle, dog, plasma, female, 1.2 mg/kg IV infusion, Dose 1, read-out: mean terminal half-life (converted)
  half-life: 3.8 h
[1]; female, beagle, dog, plasma, female, 1.2 mg/kg once daily, Dose 5, read-out: Mean AUC(0-24)
  AUC(0-t): 444 ng·h/mL
[1]; female, beagle, dog, plasma, female, 1.2 mg/kg once daily, Dose 5, read-out: mean Cmax
  Cmax: 145 ng/mL
[1]; female, beagle, dog, plasma, female, Dose 1, 1.2 mg/kg IV once daily, mean, read-out: Cmax
  Cmax: 139 ng/mL
[1]; female, beagle, dog, plasma, female, Dose 1, 1.2 mg/kg IV, harmonic mean, read-out: T1/2 (converted)
  half-life: 3.8 h
[1]; female, beagle, dog, plasma, female, Dose 1, 1.2 mg/kg IV, mean, read-out: AUC(0-24)
  AUC(0-t): 381 ng·h/mL
[1]; female, beagle, dog, plasma, female, Dose 5, 1.2 mg/kg IV once daily for 5 days, mean, read-out: Cmax
  Cmax: 145 ng/mL
[1]; female, beagle, dog, plasma, female, Dose 5, 1.2 mg/kg IV, harmonic mean, read-out: T1/2 (converted)
  half-life: 5.2 h
[1]; female, beagle, dog, plasma, female, Dose 5, 1.2 mg/kg IV, mean, read-out: AUC(0-24)
  AUC(0-t): 444 ng·h/mL
[1]; female, beagle, dog, plasma, female, Dose 5, read-out: mean terminal half-life (converted)
  half-life: 5.2 h
[1]; male
  Dose 5 to Dose 1 ratio for AUC(0-24): 1.2
  Accumulation Ratio: 1.2
[1]; male, Dose 1, 1.2 mg/kg IV, mean
  AUC(0-inf): 316.9 ng·h/mL
[1]; male, beagle, dog, plasma, Dose 1, 1.2 mg/kg IV
  Tmax: 0.67 h
[1]; male, beagle, dog, plasma, Dose 5, 1.2 mg/kg IV
  Tmax: 1 h
[1]; male, beagle, dog, plasma, male, 1.2 mg/kg IV infusion, Dose 1, read-out: Mean AUC(0-24)
  AUC(0-t): 314 ng·h/mL
[1]; male, beagle, dog, plasma, male, 1.2 mg/kg IV infusion, Dose 1, read-out: Mean Cmax
  Cmax: 108 ng/mL
[1]; male, beagle, dog, plasma, male, 1.2 mg/kg IV infusion, Dose 1, read-out: mean terminal half-life (converted)
  half-life: 3.2 h
[1]; male, beagle, dog, plasma, male, 1.2 mg/kg once daily, Dose 5, read-out: Mean AUC(0-24)
  AUC(0-t): 363 ng·h/mL
[1]; male, beagle, dog, plasma, male, 1.2 mg/kg once daily, Dose 5, read-out: mean Cmax
  Cmax: 126 ng/mL
[1]; male, beagle, dog, plasma, male, Dose 1, 1.2 mg/kg IV once daily, mean, read-out: Cmax
  Cmax: 108 ng/mL
[1]; male, beagle, dog, plasma, male, Dose 1, 1.2 mg/kg IV, harmonic mean, read-out: T1/2 (converted)
  half-life: 3.2 h
[1]; male, beagle, dog, plasma, male, Dose 1, 1.2 mg/kg IV, mean, read-out: AUC(0-24)
  AUC(0-t): 314 ng·h/mL
[1]; male, beagle, dog, plasma, male, Dose 5, 1.2 mg/kg IV once daily for 5 days, mean, read-out: Cmax
  Cmax: 126 ng/mL
[1]; male, beagle, dog, plasma, male, Dose 5, 1.2 mg/kg IV, harmonic mean, read-out: T1/2 (converted)
  half-life: 5.2 h
[1]; male, beagle, dog, plasma, male, Dose 5, 1.2 mg/kg IV, mean, read-out: AUC(0-24)
  AUC(0-t): 363 ng·h/mL
[1]; male, beagle, dog, plasma, male, Dose 5, read-out: mean terminal half-life (converted)
  half-life: 5.2 h
MiaPaCa xenograft
  tumor growth inhibition: inhibits tumor growth; also recorded: significant tumor growth inhibition
[2]; female
  Dose 5 to Dose 1 ratio for AUC(0-24): 1.5
[2]; female, iv, 7.6 mg/kg, Dose 1
  Cmax: 598 ng/mL
[2]; female, iv, 7.6 mg/kg, Dose 5
  Cmax: 1050 ng/mL
[2]; female, iv, 7.6 mg/kg, female, Dose 1, read-out: AUC(0-24)
  AUC(0-t): 784 ng·h/mL
[2]; female, iv, 7.6 mg/kg, female, Dose 5, read-out: AUC(0-24)
  AUC(0-t): 1200 ng·h/mL
[2]; female, iv, 7.6 mg/kg, female, Dose 5, read-out: terminal half-life (converted)
  half-life: 4.8 h
[2]; female, iv, 7.6 mg/kg, female, IV, Dose 1 (medium dose group, 7.6 mg/kg), read-out: terminal half-life (converted)
  half-life: 6.6 h
[2]; female, iv, […], female, Dose 1, […] IV, read-out: T1/2 (converted)
  half-life: 6.6 h
[2]; female, iv, […], female, Dose 5, […] IV once daily, read-out: T1/2 (converted)
  half-life: 4.8 h
[2]; male
  Dose 5 to Dose 1 ratio for AUC(0-24): 1.3
[2]; male, Dose 5 to Dose 1 AUC(0-24), 7.1 mg/kg IV
  Accumulation Ratio: 1.3
[2]; male, iv, 7.1 mg/kg, Dose 1, 7.1 mg/kg IV
  Cmax: 514 ng/mL
[2]; male, iv, 7.1 mg/kg, Dose 5, 7.1 mg/kg IV once daily
  Cmax: 485 ng/mL
[2]; male, iv, 7.1 mg/kg, male, Dose 1, 7.1 mg/kg IV, read-out: AUC(0-24)
  AUC(0-t): 779 ng·h/mL
[2]; male, iv, 7.1 mg/kg, male, Dose 1, 7.1 mg/kg IV, read-out: T1/2 (converted)
  half-life: 6.8 h
[2]; male, iv, 7.1 mg/kg, male, Dose 5, 7.1 mg/kg IV once daily, read-out: AUC(0-24)
  AUC(0-t): 1010 ng·h/mL
[2]; male, iv, 7.1 mg/kg, male, Dose 5, 7.1 mg/kg IV once daily, read-out: T1/2 (converted)
  half-life: 8.8 h
[2]; male, iv, 7.6 mg/kg, Dose 1
  Cmax: 514 ng/mL
[2]; male, iv, 7.6 mg/kg, Dose 5
  Cmax: 485 ng/mL
[2]; male, iv, 7.6 mg/kg, male, Dose 1, read-out: AUC(0-24)
  AUC(0-t): 779 ng·h/mL
[2]; male, iv, 7.6 mg/kg, male, Dose 5, read-out: AUC(0-24)
  AUC(0-t): 1010 ng·h/mL
[2]; male, iv, 7.6 mg/kg, male, Dose 5, read-out: terminal half-life (converted)
  half-life: 8.8 h
[2]; male, iv, 7.6 mg/kg, male, IV, Dose 1 (medium dose group, 7.6 mg/kg), read-out: terminal half-life (converted)
  half-life: 6.8 h
[2]; female, Dose 1, 7.2 mg/kg IV
  AUC(0-inf): 861 ng·h/mL
[2]; iv, 7.6 mg/kg, female, Dose 1
  AUC(0-inf): 861 ng·h/mL
[2]; iv, 7.6 mg/kg, male, Dose 1
  AUC(0-inf): 833 ng·h/mL
[2]; male, Dose 1, 7.1 mg/kg IV
  AUC(0-inf): 833 ng·h/mL
